# Assay results as given in patent US9918990B2, “Substituted pyrrolo[2,3-c]pyridines and pyrazolo[3,4-c]pyridines as BET protein inhibitors” (Incyte Corporation, priority 2013, dated 2018).
# Structures can show the parent of a compound that is named as a salt.
# Experiments:
# [1] = system: KMS.12.BM cells; test: KMS.12.BM cell viability assay (Cell Titer-GLO, ATP quantitation); assay type: cell-based; details: Homo sapiens, 72 h, 3 days, concentration required for 50% cell death, read-out: KMS cellular IC50
# Experimental: KMS.12.BM cell line (human myeloma) was purchased from JCRB (Osaka, Japan) and maintained in RPMI with 10% FBS culture medium. To measure the cytotoxic activity of the compounds through ATP quantitation, the KMS.12.BM cells are plated in the RPMI culture medium at 5000 cells/well/per 100 μL into a 96-well polystyrene clear black tissue culture plate (Greiner-bio-one through VWR, NJ), in the presence or absence of a concentration range of test compounds. After 3 days, […] Cell Titer-GLO Luminescent (Promega, Madison, Wis.) cell culture agent is added to each well for 10 minutes at room temperature to stabilize the luminescent signal. This determines the number of viable cells in culture based on quantitation of the ATP present, which signals the presence of metabolically active cells. Luminescence is measured with the Top Count 384 (Packard Bioscience through Perkin Elmer, Boston, Mass.). Compound inhibition is determined relative to cells cultured with no drug and the IC50 is reported as the compound concentration required for 50% cell death. IC50 data for the Examples is presented in Table 9 as determined by Assay B1.
# [2] = molecular target: BRD4-BD1 (Homo sapiens (Human), UniProt O60885); test: BRD4 AlphaScreen assay, BRD4-BD1; assay type: binding; details: H4Ac4 peptide, 75 min, room temperature, read-out: BRD4 BD-1 enzyme IC50
# Experimental: (§1) BRD4-BD1 and BRD4-BD2 assays were conducted in white 384-well polystyrene plate in a final volume of 20 μL for BD1 and 40 μL for BD2. Inhibitors were first serially diluted in DMSO and added to the plate wells before the addition of other reaction components. […] After plate sealing, the plate was incubated in the dark at room temperature for 75 min. before reading on a PHERAstar FS plate reader (BMG Labtech). IC50 determination was performed by fitting the curve of percent control activity versus the log of the inhibitor concentration using the GraphPad Prism 5.0 software.
# [3] = system: C-myc; test: KMS.12.BM C-myc ELISA assay; assay type: cell-based; details: Homo sapiens; KMS.12.BM cells, 2 hours, concentration required for 50% C-myc inhibition
# Experimental: KMS.12.BM cell line (human myeloma) was purchased from JCRB (Osaka, Japan) and maintained in RPMI with 10% FBS culture medium. To measure the C-myc inhibitory activity of the compounds, the KMS.12.BM cells are plated in the RPMI culture medium at 75000 cells/well/per 200 μL into a 96-well flat bottom polystyrene tissue culture plate (Corning through VWR, NJ), in the presence or absence of a concentration range of test compounds. After 2 hours, cell are pelleted and lysed with Cell Extraction Buffer (BioSource, Carlsbad, Calif.) in the presence of protease inhibitors (Life Technologies, Grand Island, N.Y. and Sigma, St Louis, Mo.). Clarified lyses are tested in a C-myc commercial ELISA (Life Technologies, Grand Island, N.Y.). Compound inhibition is determined relative to cells cultured with no drug and the IC50 is reported as the compound concentration required for 50% C-myc inhibition. IC50 data for the Examples is presented in Table 10 as determined by Assay C1.
# [4] = molecular target: BRD4-BD2 (Homo sapiens (Human), UniProt O60885); test: BRD4 AlphaScreen assay, BRD4-BD2; assay type: binding; details: H4Ac4 peptide, 75 min, room temperature, read-out: BRD4 BD-2 enzyme IC50
# Experimental: as §1
SMILES,IC50 [2] [µM],IC50 [3] [µM],IC50 [4] [µM],IC50 [1] [µM]
"Cn1cc(-c2ccc3[nH]c(=O)[nH]c3c2Oc2ccc(F)cc2F)c2cc[nH]c2c1=O [Example 1, 4-(2,4-Difluorophenoxy)-5-(6-methyl-7-oxo-6,7-dihydro-1H-pyrrolo[2,3-c]pyridin-4-yl)-1,3-dihydro-2H-benzimidazol-2-one]",< 0.1,≤ 1,< 0.1,≤ 1
"Cn1cc(-c2ccc3[nH]cnc3c2Oc2ccc(F)cc2F)c2cc[nH]c2c1=O [Example 2, 4-[4-(2,4-Difluorophenoxy)-1H-benzimidazol-5-yl]-6-methyl-1,6-dihydro-7H-pyrrolo[2,3-c]pyridin-7-one trifluoroacetate]",< 0.1,≤ 1,< 0.1,≤ 1
"Cc1nc2c(Oc3ccc(F)cc3F)c(-c3cn(C)c(=O)c4[nH]ccc34)ccc2[nH]1 [Example 3, 4-[4-(2,4-Difluorophenoxy)-2-methyl-1H-benzimidazol-5-yl]-6-methyl-1,6-dihydro-7H-pyrrolo[2,3-c]pyridin-7-one trifluoroacetate]",< 0.1,≤ 1,< 0.1,≤ 1
"Cn1cc(-c2ccc3c(ncn3C)c2Oc2ccc(F)cc2F)c2cc[nH]c2c1=O [Example 4, 4-[4-(2,4-Difluorophenoxy)-1-methyl-1H-benzimidazol-5-yl]-6-methyl-1,6-dihydro-7H-pyrrolo[2,3-c]pyridin-7-one trifluoroacetate]",< 0.1,≤ 1,< 0.1,≤ 1
"Cc1nc2c(Oc3ccc(F)cc3F)c(-c3cn(C)c(=O)c4[nH]ccc34)ccc2n1C [Example 5, 4-[4-(2,4-Difluorophenoxy)-1,2-dimethyl-1H-benzimidazol-5-yl]-6-methyl-1,6-dihydro-7H-pyrrolo[2,3-c]pyridin-7-one trifluoroacetate]",< 0.1,≤ 1,< 0.1,≤ 1
"Cn1cc(-c2ccc3c([nH]c(=O)n3C)c2Oc2ccc(F)cc2F)c2cc[nH]c2c1=O [Example 6, 4-(2,4-Difluorophenoxy)-1-methyl-5-(6-methyl-7-oxo-6,7-dihydro-1H-pyrrolo[2,3-c]pyridin-4-yl)-1,3-dihydro-2H-benzimidazol-2-one]",< 0.1,≤ 1,< 0.1,≤ 1
"Cn1cc(-c2ccc3[nH]c(=O)[nH]c3c2OCC2CC2)c2cc[nH]c2c1=O [Example 11, 4-(Cyclopropylmethoxy)-5-(6-methyl-7-oxo-6,7-dihydro-1H-pyrrolo[2,3-c]pyridin-4-yl)-1,3-dihydro-2H-benzimidazol-2-one]",< 0.1,≤ 1,< 0.1,≤ 1
"Cn1cc(-c2ccc3[nH]cnc3c2OCC2CC2)c2cc[nH]c2c1=O [Example 12, 4-[4-(Cyclopropylmethoxy)-1H-benzimidazol-5-yl]-6-methyl-1,6-dihydro-7H-pyrrolo[2,3-c]pyridin-7-one]",< 0.1,≤ 1,< 0.1,≤ 1
"Cc1nc2c(OCC3CC3)c(-c3cn(C)c(=O)c4[nH]ccc34)ccc2[nH]1 [Example 13, 4-[4-(Cyclopropylmethoxy)-2-methyl-1H-benzimidazol-5-yl]-6-methyl-1,6-dihydro-7H-pyrrolo[2,3-c]pyridin-7-one]",< 0.1,≤ 1,< 0.1,≤ 1
"Cn1cc(-c2ccc3[nH]cnc3c2Oc2ccc(F)cc2F)c2cn[nH]c2c1=O [Example 14, 4-[4-(2,4-Difluorophenoxy)-1H-benzimidazol-5-yl]-6-methyl-1,6-dihydro-7H-pyrazolo[3,4-c]pyridin-7-one]",< 0.1,≤ 1,< 0.1,≤ 1
"Cn1cc(-c2ccc3c(c2Oc2ccccc2)NC(=O)C(C)(C)O3)c2cc[nH]c2c1=O [Example 95, 2,2-Dimethyl-6-(6-methyl-7-oxo-6,7-dihydro-1H-pyrrolo[2,3-c]pyridin-4-yl)-5-phenoxy-2H-1,4-benzoxazin-3(4H)-one]",< 0.1,–,< 0.1,≤ 1
"CN1C(=O)COc2ccc(-c3cn(C)c(=O)c4[nH]ccc34)c(Oc3ccccc3)c21 [Example 100, 4-Methyl-6-(6-methyl-7-oxo-6,7-dihydro-1H-pyrrolo[2,3-c]pyridin-4-yl)-5-phenoxy-2H-1,4-benzoxazin-3(4H)-one]",0.1 to 1,–,< 0.1,≤ 1
"Cn1cc(-c2ccc3c(nc(CNC(=O)C4CCC4)n3C)c2Oc2ccccc2)c2cc[nH]c2c1=O [Example 111, N-{[1-Methyl-5-(6-methyl-7-oxo-6,7-dihydro-1H-pyrrolo[2,3-c]pyridin-4-yl)-4-phenoxy-1H-benzimidazol-2-yl]methyl}cyclobutanecarboxamide]",< 0.1,–,< 0.1,≤ 1

# Now from value to molecule, other results behind:
IC50 [2] [µM],IC50 [3] [µM],IC50 [4] [µM],SMILES,IC50 [1] [µM]
< 0.1,1 to 10,< 0.1,"Cn1cc(-c2ccc3c(c2Oc2ccc(F)cc2F)n(C)c(=O)n3C)c2cc[nH]c2c1=O [Example 7, 4-(2,4-Difluorophenoxy)-1,3-dimethyl-5-(6-methyl-7-oxo-6,7-dihydro-1H-pyrrolo[2,3-c]pyridin-4-yl)-1,3-dihydro-2H-benzimidazol-2-one]",≤ 1
< 0.1,≤ 1,< 0.1,"Cn1cc(-c2ccc3[nH]nnc3c2Oc2ccc(F)cc2F)c2cc[nH]c2c1=O [Example 8, 4-[4-(2,4-Difluorophenoxy)-1H-1,2,3-benzotriazol-5-yl]-6-methyl-1,6-dihydro-7H-pyrrolo[2,3-c]pyridin-7-one]",≤ 1
< 0.1,≤ 1,< 0.1,"Cn1cc(-c2ccc3c(nnn3C)c2Oc2ccc(F)cc2F)c2cc[nH]c2c1=O [Example 9, 4-[4-(2,4-Difluorophenoxy)-1-methyl-1H-1,2,3-benzotriazol-5-yl]-6-methyl-1,6-dihydro-7H-pyrrolo[2,3-c]pyridin-7-one]",≤ 1
< 0.1,≤ 1,< 0.1,"Cn1cc(-c2ccc3[nH]nnc3c2Oc2ccc(F)cc2F)c2cn[nH]c2c1=O [Example 10, 4-[4-(2,4-Difluorophenoxy)-1H-1,2,3-benzotriazol-5-yl]-6-methyl-1,6-dihydro-7H-pyrazolo[3,4-c]pyridin-7-one]",≤ 1
< 0.1,≤ 1,< 0.1,"Cc1nc2c(Oc3ccc(F)cc3F)c(-c3cn(C)c(=O)c4[nH]ncc34)ccc2[nH]1 [Example 15, 4-[4-(2,4-Difluorophenoxy)-2-methyl-1H-benzimidazol-5-yl]-6-methyl-1,6-dihydro-7H-pyrazolo[3,4-c]pyridin-7-one]",≤ 1
< 0.1,–,< 0.1,"Cn1cc(-c2ccc3c([nH]c(=O)n3C)c2Sc2ccccc2)c2cc[nH]c2c1=O [Example 97, 1-Methyl-5-(6-methyl-7-oxo-6,7-dihydro-1H-pyrrolo[2,3-c]pyridin-4-yl)-4-(phenylthio)-1,3-dihydro-2H-benzimidazol-2-one]",≤ 1
< 0.1,–,< 0.1,"CCSc1c(-c2cn(C)c(=O)c3[nH]ccc23)ccc2c1[nH]c(=O)n2C [Example 98, 4-(Ethylthio)-1-methyl-5-(6-methyl-7-oxo-6,7-dihydro-1H-pyrrolo[2,3-c]pyridin-4-yl)-1,3-dihydro-2H-benzimidazol-2-one]",≤ 1
< 0.1,–,< 0.1,"Cn1cc(-c2ccc3c(nc(CNC(=O)C4CC4)n3C)c2Oc2ccccc2)c2cc[nH]c2c1=O [Example 112, N-{[1-Methyl-5-(6-methyl-7-oxo-6,7-dihydro-1H-pyrrolo[2,3-c]pyridin-4-yl)-4-phenoxy-1H-benzimidazol-2-yl]methyl}cyclopropanecarboxamide]",≤ 1
